{"source": "patent EP4707393A1", "about": "“DOUBLE-STRANDED SIRNA, CONJUGATE THEREOF AND USE THEREOF” (CMS Research & Development Pte. Ltd., priority 2023, dated 2024)", "data": [{"tested_on": "human LPA gene (Genbank number: NM_005577.4)", "assay": "Inhibitory activity against LPA mRNA, psiCHECK-2 dual-luciferase reporter vector in Huh7 cells", "assay_type": "cell-based", "settings": "Huh7 cells transfected with LPA_psiCHECK-2 plasmid, RNAiMAX transfection", "method": "A stock solution was prepared by dissolving in PBS and stored at -20 °C.\nThe human LPA gene (Genbank number: NM_005577.4) was cloned into the psiCHECK™-2 vector.\nHuh7 cells were cultured in DMEM (Gibco-11995-065, 500 mL) medium, supplemented with FBS (ExCellBio-FSP500, 57 mL), Penicillin-Streptomycin solution (Hyclone-SV30010, 5.7 mL), GlutaMAX™ (Gibco-35050-061, 5.7 mL) and Non-Essential Amino Acids Solution (Gibco-11140050, 5.7 mL).\nOn Day 1, a method for transfection of the LPA_PSICHECK (TM)-2 plasmid is briefly described as follows: Huh7 cells were washed with DPBS, followed by digestion with 0.05% trypsin, gently pipetted into single cells in DMEM containing 10% FBS, and counted. Plasmid DNA was transferred into Huh7 cells using Fugene HD. The transfected cells were seeded into 96-well plates at a density of 10,000 cells per well, with 100 µL culture medium per well. The cells were incubated overnight in a 5% CO2 incubator at 37 °C.\nOn Day 2, the test compounds were diluted serially with PBS to 3 concentrations.\nRNAiMAX transfection reagent was prepared by blending homogeneously with Opti-MEM at a ratio of RNAiMAX: Opti-MEM=3:47 in a 15 mL centrifuge tube as needed. The compounds were mixed with the RNAiMAX/Opti-MEM (1:1) and incubated for 15 min. The compound-containing RNAiMAX/Opti-MEM mixture was diluted 10-fold with fresh medium and blended homogeneously.\nThe medium in each well was aspirated, and then 100 µL of the fresh compound-containing medium was added, and then incubated in a 5% CO2, 37 °C incubator.\nExperimental procedures refer to DUAL-GLO® Dual Luciferase Assay System instructions, briefly described as follows: Taking out the cells from the incubator, aspirating and discarding the supernatant, adding 75µL fresh culture medium and 75µL detection reagent, shaking for 10 minutes in the dark, and after the cells had been fully lysed, transfering100µL sample to an opaque whiteboard for detecting the Firefly luminescence signal; adding 50 µL Dual-Glo®Stop & Glo® test reagent to each well and detecting the Renilla luciferase signal after shaking for 10 minutes in the dark. The ratio of the reporter signal to the internal control reporter signal was calculated for each well.\n[formula] % Inhibition = (1-Sampleratio/RNAiMAXcontrolratio) × 100% [formula]", "units": {"EC50": "nM"}, "values": [{"substance": "Z26: siRNA conjugate: sense SEQ ID NO:42, ligand D18 at 3' end of sense strand, antisense SEQ ID NO:65 (sense CCCTTATTGTTANACGA; antisense TCTCGTATNACAATAAGGGGCTT; ligand D18 at sense 3' end; listed as RNA; modified_base 1..2: mod_base = OTHER; note = 2'-O-methylcytidine; modified_base 3: mod_base = OTHER; modified_base 4: mod_base = OTHER; note = 2'-O-methyluridine; modified_base 5: mod_base = OTHER; note = 2'-fluorou; modified_base 1: mod_base = OTHER; note = 2'-fluorocytidine; note = 2'-O-methylg)", "EC50": 2.83}, {"substance": "Z36: siRNA conjugate: sense SEQ ID NO:50, ligand D18 at 3' end of sense strand, antisense SEQ ID NO:75 (sense CCTGCCAAGCTTGGTCATCTA; antisense TAGATGNCCAAGCTTGGCNGGTT; ligand D18 at sense 3' end; listed as RNA; modified_base 1..2: mod_base = OTHER; note = 2'-O-methylcytidine; modified_base 3: mod_base = OTHER; note = 2'-O-methyluridine; modified_base 4: mod_base = OTHER; note = 2'-O-methylguanosine; modified_base 5..6: mod_base = OTHER; note = 2'-O-m; modified_base 1: mod_base = OTHER; note = E-type vinylphosphonate-modified 2'-O-methyluridine; modified_base 2: mod_base = OTHER; note = 2'-fluoroadenosine; modified_base 4: m)", "EC50": 0.23}, {"substance": "Z37: siRNA conjugate: sense SEQ ID NO:51, ligand D18 at 3' end of sense strand, antisense SEQ ID NO:76 (sense CCTGCCAAGCTTGGTCATCTA; antisense TAGATGNCCAAGCTTGGCNGGTT; ligand D18 at sense 3' end; listed as RNA; modified_base 1..2: mod_base = OTHER; note = 2'-O-methylcytidine; modified_base 3: mod_base = OTHER; note = 2'-O-methyluridine; modified_base 4: mod_base = OTHER; note = 2'-O-methylguanosine; modified_base 5..6: mod_base = OTHER; note = 2'-O-m; modified_base 1: mod_base = OTHER; note = E-type vinylphosphonate-modified 2'-O-methyluridine; modified_base 2: mod_base = OTHER; note = 2'-deoxyadenosine; modified_base 4: mo)", "EC50": 0.23}, {"substance": "Z49: siRNA conjugate: sense SEQ ID NO:51, ligand D01 at 3' end of sense strand, antisense SEQ ID NO:85 (sense CCTGCCAAGCTTGGTCATCTA; antisense NAGATGNCCAAGCTTGGCNGGTT; ligand D01 at sense 3' end; listed as RNA; modified_base 1..2: mod_base = OTHER; note = 2'-O-methylcytidine; modified_base 3: mod_base = OTHER; note = 2'-O-methyluridine; modified_base 4: mod_base = OTHER; note = 2'-O-methylguanosine; modified_base 5..6: mod_base = OTHER; note = 2'-O-m; modified_base 1: mod_base = OTHER; note = n is B36; modified_base 2: mod_base = OTHER; note = 2'-deoxyadenosine; note = 2'-O-methyladenosine)", "EC50": 0.63}, {"substance": "Z50: siRNA conjugate: sense SEQ ID NO:51, ligand D01 at 3' end of sense strand, antisense SEQ ID NO:86 (sense CCTGCCAAGCTTGGTCATCTA; antisense TCTAGATNACCAAGCTTGGCAGG; ligand D01 at sense 3' end; listed as RNA; modified_base 1..2: mod_base = OTHER; note = 2'-O-methylcytidine; modified_base 3: mod_base = OTHER; note = 2'-O-methyluridine; modified_base 4: mod_base = OTHER; note = 2'-O-methylguanosine; modified_base 5..6: mod_base = OTHER; note = 2'-O-m; modified_base 1: mod_base = OTHER; note = 2'-fluoroadenosine; modified_base 5: mod_base = OTHER; note = 2'-O-methyl)", "EC50": 0.41}, {"substance": "Z51: siRNA conjugate: sense SEQ ID NO:49, ligand D01 at 3' end of sense strand, antisense SEQ ID NO:87 (sense CAGCCCCTTATTGTTATACGA; antisense TCGTATNACAATAAGGGGCNGTT; ligand D01 at sense 3' end; listed as RNA; modified_base 1: mod_base = OTHER; note = 2'-O-methylcytidine; modified_base 2: mod_base = OTHER; note = 2'-O-methyladenosine; modified_base 3: mod_base = OTHER; note = 2'-O-methylguanosine; modified_base 4..7: mod_base = OTHER; note = 2'-O-me; note = 2'-O-methyluridine; note = 2'-deoxycytidine; modified_base 4: mod_base = OTHER; note = 2'-O-methyl)", "EC50": 0.31}, {"substance": "Z52: siRNA conjugate: sense SEQ ID NO:53, ligand D01 at 3' end of sense strand, antisense SEQ ID NO:88 (sense CTTGCCAAGCTTGGTCATCTA; antisense TCTAGATGNCCAAGCTTGGCAAG; ligand D01 at sense 3' end; listed as RNA; modified_base 1: mod_base = OTHER; note = 2'-O-methylcytidine; modified_base 2: mod_base = OTHER; note = 2'-O-methyluridine; modified_base 3: mod_base = OTHER; modified_base 4: mod_base = OTHER; note = 2'-O-methylgua; note = 2'-fluoroadenosine; modified_base 5: mod_base = OTHER; note = 2'-O-methyl)", "EC50": 0.14}]}]}
